Several values for one entry are separate records, joined by “and”; a condition that tells them apart may be missing. Equal values may be shown once. Read-outs that look alike come from different tables or passages of the source.
Key:
SARS-CoV-2 virus [1] = experiment: Reconstituted human respiratory epithelium of nasal origin (MucilAir HAE) infected with SARS-CoV-2, viral genome RT-PCR; format: cell-based; settings: alone or combined
Procedure: In order to produce the infections, we have also used a reconstituted human epithelium model (HAE MucilAir, Epithelix), obtained from primary human cells obtained by nasal biopsies, cultivated at the air-liquid interface with a specific culture medium in Costar Transwell inserts (Corning, NY, USA). For the infection experiments, the apical poles were gently washed twice using the medium OptiMEM (Gibco, ThermoFisher Scientific), then infected with 150 µl of virus dilution in medium OptiMEM, with a multiplicity of infection (MOI) of 0.1. After incubation for one hour at 37° C., 5% CO2, the viral suspension was withdrawn.
A quantitative “one-step” PCR was performed using the StepOnePlus Real Time PCR System kit (Applied Biosystems), with the reagent EXPRESS One-Step Superscript qRT-PCR (Invitrogen), in a reaction volume of 20 µl containing 10 µl of supermix Express qPCR (2×), 1 µl of each primer (10 µM), […], 0.4 µl Rox dye (25 µM) and 2 µl of viral RNA.
The following program was used: 15 minutes at 50° C., followed by 40 cycles (15 s 95° C.; 1 min 60° C.).
Reconstituted human respiratory epithelia of nasal origin and cultivated at the air-liquid interface (MucilAir® HAE, Epithelix) were infected with SARS-CoV-2 (MOI 0.1). The basal medium was treated once per day by the following molecules, in simple or combination treatment: • diltiazem (45 or 90 µM), • remdesivir (20 or 40 µM) and • berberine (4 µM) for 48 or 72 hours post-infection.
At various times, the epithelia were harvested and lysed. The total RNA was extracted and the viral genomes were quantified by RT-PCR by normalising the data using the quantification of the product of a cellular gene (GAPDH).

[2] = cited from earlier work
SARS-CoV-2 virus [3] = experiment: Vero E6 cells infected by SARS-CoV-2, viral infectious titre in culture supernatant; format: cell-based; settings: monotherapy
Procedure: The viral production relative to each of the concentrations of molecules has been determined and is shown with respect to the viral production from infected cells or HAE under the same conditions but untreated. The median inhibitory concentrations (IC50) were determined for each treatment condition.
The Vero E6 (ATCC CRL-1586) cells were cultivated in medium DMEM 4.5 g/l of glucose, supplemented by L-glutamine and penicillin/streptomycin and 10% inactivated foetal calf serum, at 37° C., 5% CO2.
In order to produce the infections, the cells were rinsed twice by the medium without serum and were covered by a minimum volume containing a dilution of virus, this dilution being determined from the infectious titre (cf. section on determination of the infectious titre), in order to obtain an adequate multiplicity of infection (MOI). After incubation for one hour in the presence of a minimum volume, the medium was replaced by the medium DMEM 4.5 g/l of glucose, supplemented by L-glutamine and penicillin/streptomycin and 2% inactivated foetal calf serum, and the cells were incubated again at 37° C., 5% CO2.
The determination of the infectious titre was performed using a limited dilution technique, on these Vero E6 cells on a 96-well plate. A volume of 50 µl of series dilutions was deposited in the wells in quadruplicates. The cells were then incubated at 37° C., 5% CO2 and the presence of cytopathic effects is then monitored after 3 days of infection. The infectious dose in tissue culture 50% (DICT50/ ml), i.e. the viral titre required to form an infection in 50% of inoculated cells, was calculated using the technique of Reed and Muench.
Vero E6 cells infected by SARS-CoV-2 (MOI 0.1) were treated at one hour post-infection by increasing concentrations of: • diltiazem (2.8 to 45 µM), • berberine (1.6 to 25 µM), and • remdesivir (0.6 to 10 µM), alone (FIG. 1) and in combination (FIG. 2).
For each of the combined treatments tested, a dose of one of the molecules was fixed and combined with increasing concentrations of the other molecule (same concentration ranges as those used in monotherapy, respectively) and vice versa. The viral infectious titres measured in the culture supernatants of the infected cells (sampled at 48 and 72 hours post-infection) reflect the level of viral replication measured under the various treatment conditions.

[4] = system: SARS-CoV-2 (Wuhan-like strain); experiment: IC50 of diltiazem on SARS-CoV-2 in A549-ACE2 cells, RT-PCR; format: cell-based; settings: Severe acute respiratory syndrome coronavirus 2; A549-ACE2, MOI 10^-1, treated 1 hpi, 72 hours after infection
Procedure: The experimental protocol is the following: • Seeding of the A549-ACE2 cells, • 24 hours after infection of A549-ACE2 cells with a Wuhan-like strain of SARS-CoV-2 (MOI 10^-1), • 1 hour post infection (pi), the cells are treated with diltiazem at different concentrations. • The supernatants are sampled at 72 hours after the infection for a viral quantification by RT-PCR.
The IC50 is the median inhibitory concentration, i.e. the quantity of diltiazem necessary to obtain 50% inhibition of the viral replication of the tested SARS-CoV-2 strain.

[5] = system: SARS-CoV-2 (Wuhan-like strain); experiment: A549-ACE2 cells infected with SARS-CoV-2, viral titre in supernatant over time by RT-PCR; format: cell-based; settings: A549-ACE2, MOI 10^-1 and 10^-2, single treatment 1 hpi, diltiazem 45 µM or remdesivir 5 µM, 24-96 hpi
Text: The cells of the cell line A549 are human alveolar basal epithelial cells derived from adenocarcinoma. This cell line is used as a model for the study of lung cancer, but also as target cells for infectious viruses targeting the respiratory tract. These cells were subsequently modified to express the ACE2 receptor, via which the SARS-CoV-2 virus penetrates into the hosts cells. This cell line A549-ACE2 was obtained from Creative Biogene (USA).
The experimental protocol is the following: • Seeding of the A549-ACE2 cells, • 24 hours after infection of the A549-ACE2 cells with a Wuhan-like strain of SARS-CoV-2 (MOI 10^-1 and 10^-2), • 1 hour post infection (pi), the cells are treated with 45 uM diltiazem. • The supernatants are sampled at 24 hours, 48 hours, 72 hours and 96 hours after the infection for a viral quantification by RT-PCR.
The incubation media used are the following: • Seeding medium: DMEM 1 g/L glucose (Glc), 200 mM L-Glutamine (L-Glu), […] penicillin/streptomycin (P/S), 10% foetal calf serum (FCS) • Infection medium: DMEM 1 g/L Glc, 200 mM L-Glu, 104 U P/S, 0% FCS • Treatment medium: DMEM 1 g/L Glc, 200 mM L-Glu, 104 U P/S, 2% FCS

[6] = Cytotoxicity (CC50) on A549-ACE2 cells, MTS test; format: cell-based; settings: human, 72 hours of treatment, read-out: CC50 (cytotoxic concentration 50%)
Procedure: In parallel, the cytotoxicity of diltiazem on A549-ACE2 cells has been verified under the same experimental conditions. For this purpose, the CC50 (cytotoxic concentration 50%), which corresponds to the necessary dose of diltiazem in order to reduce the viability of the cells by half, was measured by monitoring the viability of the A549-ACE2 cells in the presence of various concentrations of diltiazem. The variability was determined by an MTS carried out 72 hours after the start of the treatment.
The MTS test is a colorimetric method: the method is based on the reduction of the compound MTS tetrazolium by viable cells in order to generate a coloured formazan product, enabling the counting of viable cells (coloured) […].

coronavirus SARS-CoV-2 = format: cell-based
[7] = MOI 0.1, 48 hpi, remdesivir 20 µM, diltiazem 90 µM, berberine 4 µM
[8] = MOI 0.1, 72 hpi, remdesivir 20 µM, diltiazem 90 µM
[9] = MOI 0.1, 72 hpi, remdesivir 40 µM, diltiazem 45 µM
[10] = Severe acute respiratory syndrome coronavirus 2, Vero C1008, Vero E6, MOI 0.01, 48 hpi, read-out: IC50
[11] = Severe acute respiratory syndrome coronavirus 2, Vero C1008, Vero E6, MOI 0.01, 72 hpi, read-out: IC50

Row | SMILES | Reduction Relative viral production (%) (SARS-CoV-2 virus [1]; [7]) | Reduction Relative viral production (-log10) (SARS-CoV-2 virus [1]; [7]) | bioavailability [2] | half-life [2] [h] | IC50 (SARS-CoV-2 virus [3]; Severe acute respiratory syndrome coronavirus 2, Vero C1008, Vero E6, MOI 0.01, 48 hpi) [µM] | IC50 (SARS-CoV-2 virus [3]; Severe acute respiratory syndrome coronavirus 2, Vero C1008, Vero E6, MOI 0.01, 72 hpi) [µM] | IC50 (SARS-CoV-2 virus [3]; Vero E6, MOI 0.01, 72 hpi, read-out: IC50) [µM] | Reduction Relative viral production (%) (SARS-CoV-2 virus [1]; [8]) | Reduction Relative viral production (-log10) (SARS-CoV-2 virus [1]; [8]) | Reduction Relative viral production (%) (SARS-CoV-2 virus [1]; [9]) | Reduction Relative viral production (-log10) (SARS-CoV-2 virus [1]; [9]) | IC50 [4] [µM] | Inhibition of the viral titre in the supernatant over time (% of untreated) [5] | CC50 at 72 h [6] [µM] | IC50 (SARS-CoV-2 virus [3]; [10]) [µM] | IC50 (SARS-CoV-2 virus [3]; [11]) [µM] | Reduction Relative viral production (-log10) (SARS-CoV-2 virus [1]; MOI 0.1, 48 hpi, remdesivir 20 µM, diltiazem 90 µM, berberine 4 µM, listed as remdesivir) | Antiviral action against coronavirus SARS-CoV-2 (coronavirus SARS-CoV-2)
1 | COc1ccc2cc3[n+](cc2c1OC)CCc1cc2c(cc1-3)OCO2 [Berberine, berberine] | 86.37 | 0.86 -log10 and 0.8655 -log10 | low | ~4 | 17.5 | < 5.6 | 5.6 ± 1.7 | – | – | – | – | – | – | – | – | – | – | –
2 | COc1ccc([C@@H]2Sc3ccccc3N(CCN(C)C)C(=O)[C@@H]2OC(C)=O)cc1.Cl [Diltiazem, diltiazem] | 55.13 | 0.35 -log10 and 0.348 -log10 | – | – | – | – | – | 29.37 | 0.15 -log10 and 0.151 -log10 | 31.35 | 0.16 -log10 and 0.1634 -log10 | 19.7 | same level of inhibition of the viral titre | 374 | > 45 | > 45 | – | –
3 | CCC(CC)COC(=O)[C@H](C)N[P@](=O)(OC[C@H]1O[C@@](C#N)(c2ccc3c(N)ncnn23)[C@H](O)[C@@H]1O)Oc1ccccc1 [Remdesivir, remdesivir] | 100 | more than 7.75 -log10 | – | – | – | – | – | 99.62 | – | 99.5 | 2.3 -log10 and 2.24 -log10 | – | – | – | 0.98 | 0.72 | 7.351 -log10 | –
4 | O=c1cc(-c2ccc(O)cc2)oc2cc(O)cc(O)c12 [apigenin] | – | – | – | – | – | – | – | – | – | – | – | – | – | – | – | – | – | does not have a significant antiviral action
